Reference: patent US8889712B2, “IAP antagonists” (Bristol-Myers Squibb Company, priority 2012, dated 2014)

Columns and labels:
[1] = target: T1, XIAP BIR3 (Homo sapiens, UniProt P98170); assay: XIAP-BIR3/SMAC Homogeneous Time Resolved Fluorescence (HTRF) Assay; format: binding; details: 1 nM N-His-BIR3 (241-356, XIAP), 5 nM fluorescein labeled SMAC peptide; HTRF signal; read-out: XIAP BIR3 IC50
T1 construct: His-BIR3 (241-356, XIAP)
Method: A. XIAP-BIR3/SMAC Homogeneous Time Resolved Fluorescence (HTRF) Assay Assays were performed in black, flat-bottom, 384-well plates. […] The reaction was incubated at room temperature for 60 minutes, following which 10 μl of mouse anti-6×His-terbium labeled Fab (Medarex, Cis-bio) was added to the reaction (40 μl) for an additional 30 minute incubation. […] Compounds were dissolved at 3 mM in dimethylsulfoxide (DMSO) and evaluated at eleven serially diluted concentrations. IC50 and Ki values were derived by non-linear regression analysis.

[2] = target: T2, XIAP BIR2-3 (Homo sapiens, UniProt P98170, C202A/C213G); assay: XIAP-BIR2-3 dimeric SMAC Peptide Homogeneous Time Resolved Fluorescence (HTRF) Assay; format: binding; details: 0.5 nM N-His-BIR2-3 (125-356, C202A/C213G, XIAP), 20 nM fluorescein labeled dimeric SMAC peptide; HTRF signal; read-out: XIAP BIR2-3 IC50
T2 construct: His-BIR2-3 (125-356, C202A/C213G, XIAP)
Method: B. […] Assays were performed in black, flat-bottom, 384-well plates. […] Compounds were dissolved at 3 mM in dimethylsulfoxide (DMSO) and evaluated at eleven serially diluted concentrations. IC50 and Ki values were derived by non-linear regression analysis.

T2 sequence (P98170 125-356 C202A/C213G): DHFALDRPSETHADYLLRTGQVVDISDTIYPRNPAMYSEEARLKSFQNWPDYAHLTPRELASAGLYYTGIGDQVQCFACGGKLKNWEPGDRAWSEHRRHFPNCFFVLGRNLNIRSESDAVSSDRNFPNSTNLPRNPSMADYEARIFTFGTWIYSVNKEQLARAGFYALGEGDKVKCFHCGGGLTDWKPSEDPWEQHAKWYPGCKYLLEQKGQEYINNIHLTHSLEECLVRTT
T1 sequence (P98170 241-356): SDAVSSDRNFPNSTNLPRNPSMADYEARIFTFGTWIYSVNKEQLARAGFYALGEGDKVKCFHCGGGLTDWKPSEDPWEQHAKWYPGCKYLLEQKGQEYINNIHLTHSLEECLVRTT

SMILES	IC50 [1] [nM]	IC50 [2] [nM]
CN[C@@H](C)C(=O)N[C@H](C(=O)N1C[C@@H](c2ccc3c(c2)CN(C(=O)[C@@H](NC(=O)[C@H](C)NC)C(C)(C)C)[C@H](C(=O)N[C@@H]2CCCc4ccccc42)C3)C[C@H]1C(=O)N[C@@H](Cc1ccccc1)c1nnc(C)o1)C(C)(C)C [Example 79, (S)-2-((S)-3,3-Dimethyl-2-((S)-2-(methylamino)propanamido)butanoyl)-7-((3R,5S)-1-((S)-3,3-dimethyl-2-((S)-2-(methylamino)propanamido)butanoyl)-5-(((S)-1-(5-methyl-1,3,4-oxadiazol-2-yl)-2-phenylethyl)carbamoyl)pyrrolidin-3-yl)-N—((R)-1,2,3,4-tetrahydronaphthalen-1-yl)-1,2,3,4-tetrahydroisoquinoline-3-carboxamide]	16.7	3.4
CN[C@@H](C)C(=O)N[C@H](C(=O)N1C[C@@H](c2ccc3c(c2)CN(C(=O)[C@@H](NC(=O)[C@H](C)NC)C(C)(C)C)[C@H](C(=O)N[C@@H]2CCCc4ccccc42)C3)C[C@H]1C(=O)N[C@@H](Cc1ccccc1)C(=O)N(C)CCOC)C(C)(C)C [Example 55, (S)-2-((S)-3,3-Dimethyl-2-((S)-2-(methylamino)propanamido)butanoyl)-7-((3R,5S)-1-((S)-3,3-dimethyl-2-((S)-2-(methylamino)propanamido)butanoyl)-5-(((S)-1-((2-methoxyethyl)(methyl)amino)-1-oxo-3-phenylpropan-2-yl)carbamoyl)pyrrolidin-3-yl)-N-((R)-1,2,3,4-tetrahydronaphthalen-1-yl)-1,2,3,4-tetrahydroisoquinoline-3-carboxamide]	37.7	8.5
CCN[C@@H](C)C(=O)N[C@H](C(=O)N1Cc2cc(C(=O)N[C@H]3C[C@@H](C(=O)N[C@@H]4CCCc5ccccc54)N(C(=O)[C@@H](NC(=O)[C@H](C)NC)C(C)(C)C)C3)ccc2C[C@H]1C(=O)N[C@@H]1CCCc2ccccc21)C(CC)CC [Example 18, (S)-N^7-((3S,5S)-1-((S)-3,3-Dimethyl-2-((S)-2-(methylamino)propanamido)butanoyl)-5-(((R)-1,2,3,4-tetrahydronaphthalen-1-yl)carbamoyl)pyrrolidin-3-yl)-2-((S)-3-ethyl-2-((S)-2-(ethylamino)propanamido)pentanoyl)-N^3-((R)-1,2,3,4-tetrahydronaphthalen-1-yl)-1,2,3,4-tetrahydroisoquinoline-3,7-dicarboxamide]	9	4
CN[C@@H](C)C(=O)N[C@H](C(=O)N1Cc2cc(C3C[C@@H](C(=O)N[C@H](CO)Cc4ccccc4)N(C(=O)[C@@H](NC(=O)[C@H](C)NC)C(C)(C)C)C3)ccc2C[C@H]1C(=O)NC1CCCc2ccccc21)C(C)(C)C (stereo in doubt) [Example 74, (S)-2-((S)-3,3-Dimethyl-2-((S)-2-(methylamino)propanamido)butanoyl)-7-((3S,5S)-1-((S)-3,3-dimethyl-2-((S)-2-(methylamino)propanamido)butanoyl)-5-(((S)-1-hydroxy-3-phenylpropan-2-yl)carbamoyl)pyrrolidin-3-yl)-N-((R)-1,2,3,4-tetrahydronaphthalen-1-yl)-1,2,3,4-tetrahydroisoquinoline-3-carboxamide]	13.6	2.6
CN[C@@H](C)C(=O)N[C@H](C(=O)N1C[C@@H](c2ccc3c(c2)CN(C(=O)[C@@H](NC(=O)[C@H](C)NC)C(C)(C)C)[C@H](C(=O)N[C@@H]2CCCc4ccccc42)C3)C[C@H]1C(=O)N[C@@H](Cc1ccccc1)c1noc(C)n1)C(C)(C)C [Example 80, (S)-2-((S)-3,3-Dimethyl-2-((S)-2-(methylamino)propanamido)butanoyl)-7-((3R,5S)-1-((S)-3,3-dimethyl-2-((S)-2-(methylamino)propanamido)butanoyl)-5-(((S)-1-(5-methyl-1,2,4-oxadiazol-3-yl)-2-phenylethyl)carbamoyl)pyrrolidin-3-yl)-N—((R)-1,2,3,4-tetrahydronaphthalen-1-yl)-1,2,3,4-tetrahydroisoquinoline-3-carboxamide]	7.3	2.6
CN[C@@H](C)C(=O)N[C@H](C(=O)N1C[C@@H](c2ccc3c(c2)CN(C(=O)[C@@H](NC(=O)[C@H](C)NC)C(C)(C)C)[C@H](C(=O)N[C@@H]2CCCc4ccccc42)C3)C[C@H]1C(=O)N[C@@H](Cc1ccccc1)c1nnn[nH]1)C(C)(C)C [Example 78, (S)-2-((S)-3,3-Dimethyl-2-((S)-2-(methylamino)propanamido)butanoyl)-7-((3R,5S)-1-((S)-3,3-dimethyl-2-((S)-2-(methylamino)propanamido)butanoyl)-5-(((S)-2-phenyl-1-(1H-tetrazol-5-yl)ethyl)carbamoyl)pyrrolidin-3-yl)-N—((R)-1,2,3,4-tetrahydronaphthalen-1-yl)-1,2,3,4-tetrahydroisoquinoline-3-carboxamide]	8.9	2.8
CCN[C@@H](C)C(=O)N[C@H](C(=O)N1C[C@@H](NC(=O)c2ccc3c(c2)CN(C(=O)[C@@H](NC(=O)[C@H](C)NC)C(C)(C)C)[C@H](C(=O)N[C@@H]2CCCc4ccccc42)C3)C[C@H]1C(=O)N[C@@H]1CCCc2ccccc21)C(C)(C)C [Example 14, (S)-2-((S)-3,3-Dimethyl-2-((S)-2-(methylamino)propanamido)butanoyl)-N^7-((3S,5S)-1-((S)-2-((S)-2-(ethylamino)propanamido)-3,3-dimethylbutanoyl)-5-(((R)-1,2,3,4-tetrahydronaphthalen-1-yl)carbamoyl)pyrrolidin-3-yl)-N^3-((R)-1,2,3,4-tetrahydronaphthalen-1-yl)-1,2,3,4-tetrahydroisoquinoline-3,7-dicarboxamide]	29	15
CN[C@@H](C)C(=O)N[C@H](C(=O)N1C[C@@H](c2ccc3c(c2)CN(C(=O)[C@@H](NC(=O)[C@H](C)NC)C(C)(C)C)[C@H](C(=O)N[C@@H]2CCCc4ccccc42)C3)C[C@H]1C(=O)N[C@@H](Cc1ccccc1)C(=O)NS(=O)(=O)c1ccc2ccccc2c1)C(C)(C)C [Example 49, (S)-2-((S)-3,3-Dimethyl-2-((S)-2-(methylamino)propanamido)butanoyl)-7-((3R,5S)-1-((S)-3,3-dimethyl-2-((S)-2-(methylamino)propanamido)butanoyl)-5-(((S)-1-(naphthalene-2-sulfonamido)-1-oxo-3-phenylpropan-2-yl)carbamoyl)pyrrolidin-3-yl)-N-((R)-1,2,3,4-tetrahydronaphthalen-1-yl)-1,2,3,4-tetrahydroisoquinoline-3-carboxamide]	0.4	0.5

Further compounds by falling IC50 [1], results first:

IC50 [1] [nM]	IC50 [2] [nM]	SMILES
13.5	2.6	CN[C@@H](C)C(=O)N[C@H](C(=O)N1C[C@@H](c2ccc3c(c2)CN(C(=O)[C@@H](NC(=O)[C@H](C)NC)C(C)(C)C)[C@H](C(=O)N[C@@H]2CCCc4ccccc42)C3)C[C@H]1C(=O)N[C@@H](Cc1ccccc1)c1ncc(C)o1)C(C)(C)C [Example 81, (S)-2-((S)-3,3-Dimethyl-2-((S)-2-(methylamino)propanamido)butanoyl)-7-((3R,5S)-1-((S)-3,3-dimethyl-2-((S)-2-(methylamino)propanamido)butanoyl)-5-(((S)-1-(5-methyloxazol-2-yl)-2-phenylethyl)carbamoyl)pyrrolidin-3-yl)-N—((R)-1,2,3,4-tetrahydronaphthalen-1-yl)-1,2,3,4-tetrahydroisoquinoline-3-carboxamide]
8.7	1.9	CN[C@@H](C)C(=O)N[C@H](C(=O)N1CC(c2ccc3c(c2)CN(C(=O)[C@@H](NC(=O)[C@H](C)NC)C(C)(C)SCC(=O)O)[C@H](C(=O)NC2CCCc4ccccc42)C3)C[C@H]1C(=O)NC1CCCc2ccccc21)C(C)(C)C (stereo partly drawn) [Example 32, 2-(((R)-4-((S)-7-((3R,5S)-1-((S)-3,3-Dimethyl-2-((S)-2-(methylamino)propanamido)butanoyl)-5-(((R)-1,2,3,4-tetrahydronaphthalen-1-yl)carbamoyl)pyrrolidin-3-yl)-3-(((R)-1,2,3,4-tetrahydronaphthalen-1-yl)carbamoyl)-3,4-dihydroisoquinolin-2(1H)-yl)-2-methyl-3-((S)-2-(methylamino)propanamido)-4-oxobutan-2-yl)thio)acetic acid, 2TFA]
7.6	2.3	CN[C@@H](C)C(=O)N[C@H](C(=O)N1C[C@@H](c2ccc3c(c2)CN(C(=O)[C@@H](NC(=O)[C@H](C)NC)C(C)(C)C)[C@H](C(=O)N[C@@H]2CCCc4ccccc42)C3)C[C@H]1C(=O)N[C@@H](Cc1ccccc1)C(=O)Nc1cccc(-c2cnco2)c1)C(C)(C)C [Example 58, (S)-2-((S)-3,3-Dimethyl-2-((S)-2-(methylamino)propanamido)butanoyl)-7-((3R,5S)-1-((S)-3,3-dimethyl-2-((S)-2-(methylamino)propanamido)butanoyl)-5-(((S)-1-((3-(oxazol-5-yl)phenyl)amino)-1-oxo-3-phenylpropan-2-yl)carbamoyl)pyrrolidin-3-yl)-N-((R)-1,2,3,4-tetrahydronaphthalen-1-yl)-1,2,3,4-tetrahydroisoquinoline-3-carboxamide]
